{"source": "patent US20170007605A1", "about": "“Method of Optimizing the Treatment of Philadelphia-positive Leukemia with Abl Tyrosine Kinase Inhibitors” (Novartis AG, priority 2006, published 2017)", "key": {"[1]": {"settings": "in patients; cited from earlier work"}, "[2]": {"experiment": "Plasma trough levels (Cmin) of Imatinib and CGP74588, IRIS study (LC/MS/MS)", "type": "in vivo"}, "[3]": {"system": "newly diagnosed patients with CML in chronic phase (CML-CP)", "settings": "cited from earlier work"}, "CML-CP patients": {"system": "CML-CP patients", "experiment": "CCR and MMR rates by steady-state Imatinib trough level quartile, IRIS study", "type": "in vivo, human", "experimental": "Rates of CCR (defined as 0% Ph+ metaphase cells out of at least 20 examined) in the study population and major molecular response (MMR, defined as ≧3 log reduction in BCR-ABL/BCR ratio from a standardized baseline) in subjects who achieved CCR before were reported previously (O'Brien S G, Guilhot F, Larson R A, et al., see above).\nCCR were evaluated up to 5 years."}, "CML patients": {"system": "CML patients", "experiment": "Cytogenetic (CCR) and molecular (MMR) response to Imatinib mesylate therapy and ROC curve analysis, Bordeaux study", "type": "in vivo, human", "settings": "of 68 CML patients, after at least one year's treatment, 400 or 600 mg once daily", "experimental": "The cytogenetic response to Imatinib mesylate therapy was assessed using a conventional cytogenetic analysis of bone marrow metaphases. Cytogenetic responders were defined as having CCR, i.e. 0 percent of Philadelphia-chromosome-positive metaphases among at least 25 cells in metaphase in the bone marrow aspirate (Colombat M, Fort M P, Chollet C, et al. Haematologica 2006; 91:162-8.). Real-time quantitative reverse-transcriptase polymerase chain reaction assay was used to assess BCR-ABL transcript levels and quantify the molecular response (Colombat M, Fort M P, Chollet C, et al. see above). Briefly, EDTA-anticoagulated peripheral blood was collected to perform RNA extraction followed by real-time quantitative reverse-transcriptase polymerase chain reaction. […] Quantification of BCR-ABL transcripts was performed according to recommendations recently proposed for harmoniza-tion of results (Hughes T P, Deininger M, Hochhaus A, et al. Blood 2006; 108:28-37.). […] A standardized baseline was calculated by measuring the ratio of BCR-ABL/ABL in 40 chronic-phase CML patients from blood collected before any treatment. […]\nAny relationship between BCR-ABL transcript levels and the range time from date of Imatinib mesylate treatment initiation to date of molecular analysis was evaluated.\nResults were expressed as adjusted odds ratio; 95 percent confidence interval; P value of Wald test."}, "[4]": {"experiment": "Trough plasma Imatinib concentrations at steady-state, Bordeaux study (HPLC-ESI-MS/MS)"}, "[5]": {"settings": "Day 29, Quartiles 2 and 3, N = 178"}, "[6]": {"settings": "five year follow-up, first-line imatinib"}, "[7]": {"settings": "400 mg daily, 50 patients, steady-state"}, "[8]": {"settings": "600 mg daily, 18 patients, steady-state"}, "[9]": {"settings": "patients without MMR (34 patients)"}}, "note": "Several values for one entry are separate records, joined by “and”; a condition that tells them apart may be missing. Equal values may be shown once.", "data": [{"smiles": "Cc1ccc(NC(=O)c2ccc(CN3CCNCC3)cc2)cc1Nc1nccc(-c2cccnc2)n1", "note": "[CGP74588, N-{5-[4-(piperazino-methyl)-benzoylamido]-2-methylphenyl}-4-(3-pyridyl)-2-pyrimidine-amine]", "values": [{"measurement": "Metabolite level as share of the parent drug plasma level", "setting": "[1]", "value": "~20", "unit": "%"}, {"measurement": "Steady-state trough level, mean (±SD)", "setting": "[2]; Day 29, 400 mg daily, overall N = 351", "value": "241.9±105.5 ng/mL and 242 (±105.5) ng/mL"}, {"measurement": "CGP74588/Imatinib trough concentration ratio, mean (±SD)", "setting": "[2]; Day 29, Quartile 1, N = 87", "value": "0.32 (±0.106)"}, {"measurement": "Steady-state trough level, mean (±SD)", "setting": "[2]; Day 29, Quartile 1, N = 87", "value": "153 (±48.5) ng/mL"}, {"measurement": "CGP74588/Imatinib trough concentration ratio, mean (±SD)", "setting": "[2]; Day 29, Quartile 4, N = 86", "value": "0.21 (±0.052)"}, {"measurement": "Steady-state trough level, mean (±SD)", "setting": "[2]; Day 29, Quartile 4, N = 86", "value": "343 (±126.1) ng/mL"}, {"measurement": "CGP74588/Imatinib trough concentration ratio, mean (±SD)", "setting": "[2]; [5]", "value": "0.27 (±0.068)"}, {"measurement": "Steady-state trough level, mean (±SD)", "setting": "[2]; [5]", "value": "236 (±65.8) ng/mL"}, {"measurement": "24-hour trough concentration after the first dose", "setting": "[2]; first 400 mg dose, Day 2, mean±SD", "value": "82.7 ± 47.4", "unit": "ng/mL"}, {"measurement": "Contribution of the metabolite to Imatinib exposure", "setting": "[2]; in vivo", "value": "< 20", "unit": "%"}, {"measurement": "Spearman correlation coefficient between parent drug and metabolite levels", "setting": "[2]; in vivo", "value": 0.76}, {"measurement": "Accumulation ratio to steady state", "setting": "[2]; trough levels on days 2 and 29 in the same subject", "value": "3.38±1.54"}]}, {"smiles": "Cc1ccc(NC(=O)c2ccc(CN3CCN(C)CC3)cc2)cc1Nc1nccc(-c2cccnc2)n1", "note": "[Imatinib, 4-(4-methylpiperazin-1-ylmethyl)-N-[4-methyl-3-(4-(pyridin-3-yl)pyrimidin-2-ylamino)phenyl]-benzamide]", "values": [{"measurement": "Efficacy compared with IFN+Ara-C", "setting": "[3]; 400 mg daily, newly diagnosed CML-CP", "value": "superior efficacy to IFN+Ara-C"}, {"measurement": "Estimated cumulative rate of complete cytogenetic response (CCR)", "setting": "[3]; [6]", "value": 87, "unit": "%"}, {"measurement": "Overall survival", "setting": "[3]; [6]", "value": 89, "unit": "%"}, {"measurement": "MMR (%) in pts with CCR", "setting": "CML-CP patients; 1 year, Quartile 1", "value": 43, "unit": "%"}, {"measurement": "CCR rate", "setting": "CML-CP patients; 1 year, Quartile 1 (n = 87)", "value": 59, "unit": "%"}, {"measurement": "MMR (%) in pts with CCR", "setting": "CML-CP patients; 1 year, Quartile 4", "value": 55, "unit": "%"}, {"measurement": "CCR rate", "setting": "CML-CP patients; 1 year, Quartile 4 (n = 86)", "value": 73, "unit": "%"}, {"measurement": "MMR (%) in pts with CCR", "setting": "CML-CP patients; 1 year, Quartiles 2 and 3", "value": 56, "unit": "%"}, {"measurement": "CCR rate", "setting": "CML-CP patients; 1 year, Quartiles 2 and 3 (n = 178)", "value": 71, "unit": "%"}, {"measurement": "CCR rate", "setting": "CML-CP patients; 2 years, Quartile 1", "value": 73, "unit": "%"}, {"measurement": "MMR (%) in pts with CCR", "setting": "CML-CP patients; 2 years, Quartile 1", "value": 63, "unit": "%"}, {"measurement": "CCR rate", "setting": "CML-CP patients; 2 years, Quartile 4", "value": 84, "unit": "%"}, {"measurement": "MMR (%) in pts with CCR", "setting": "CML-CP patients; 2 years, Quartile 4", "value": 86, "unit": "%"}, {"measurement": "CCR rate", "setting": "CML-CP patients; 2 years, Quartiles 2 and 3", "value": 80, "unit": "%"}, {"measurement": "MMR (%) in pts with CCR", "setting": "CML-CP patients; 2 years, Quartiles 2 and 3", "value": 78, "unit": "%"}, {"measurement": "CCR rate", "setting": "CML-CP patients; 4 years, Quartile 1", "value": 81, "unit": "%"}, {"measurement": "MMR (%) in pts with CCR", "setting": "CML-CP patients; 4 years, Quartile 1", "value": 65, "unit": "%"}, {"measurement": "CCR rate", "setting": "CML-CP patients; 4 years, Quartile 4", "value": 89, "unit": "%"}, {"measurement": "MMR (%) in pts with CCR", "setting": "CML-CP patients; 4 years, Quartile 4", "value": 90, "unit": "%"}, {"measurement": "CCR rate", "setting": "CML-CP patients; 4 years, Quartiles 2 and 3", "value": 87, "unit": "%"}, {"measurement": "MMR (%) in pts with CCR", "setting": "CML-CP patients; 4 years, Quartiles 2 and 3", "value": 83, "unit": "%"}, {"measurement": "Time to CCR", "setting": "CML-CP patients; Quartile 1", "value": 8.3, "unit": "Month"}, {"measurement": "Time to MMR in pts with CCR", "setting": "CML-CP patients; Quartile 1", "value": 16.7, "unit": "months"}, {"measurement": "Time to CCR", "setting": "CML-CP patients; Quartile 4", "value": 5.6, "unit": "Month"}, {"measurement": "Time to CCR", "setting": "CML-CP patients; Quartiles 2 and 3", "value": 5.7, "unit": "Month"}, {"measurement": "Estimated MMR rate, all patients", "setting": "CML-CP patients; at 1 year, Imatinib levels <647 ng/mL", "value": 25, "unit": "%"}, {"measurement": "Estimated MMR rate, all patients", "setting": "CML-CP patients; by 4 years, Q1", "value": 53, "unit": "%"}, {"measurement": "Estimated MMR rate, all patients", "setting": "CML-CP patients; by 4 years, Q4", "value": 80, "unit": "%"}, {"measurement": "Estimated MMR rate, all patients", "setting": "CML-CP patients; by 4 years, inter-quartile range (IQ)", "value": 72, "unit": "%"}, {"measurement": "Estimated MMR rate, all patients", "setting": "CML-CP patients; within 1 year, patients with higher Imatinib levels", "value": 40, "unit": "%"}, {"measurement": "Number of patients who achieved a CCR", "setting": "CML patients", "value": 56}, {"measurement": "Trough plasma Imatinib concentration, mean value", "setting": "[4]; 400 mg daily Imatinib mesylate, 50 patients, steady-state", "value": 1058, "unit": "ng per millilitre"}, {"measurement": "Trough plasma Imatinib concentration, Q 25 (first quartile)", "setting": "[4]; [7]", "value": 722, "unit": "ng per millilitre"}, {"measurement": "Trough plasma Imatinib concentration, Q 75 (third quartile)", "setting": "[4]; [7]", "value": 1285, "unit": "ng per millilitre"}, {"measurement": "Trough plasma Imatinib concentration, maximum", "setting": "[4]; [7]", "value": 2947, "unit": "ng per millilitre"}, {"measurement": "Trough plasma Imatinib concentration, median", "setting": "[4]; [7]", "value": 997, "unit": "ng per millilitre"}, {"measurement": "Trough plasma Imatinib concentration, minimum", "setting": "[4]; [7]", "value": 181, "unit": "ng per millilitre"}, {"measurement": "Trough plasma Imatinib concentration, Q 25 (first quartile)", "setting": "[4]; [8]", "value": 902, "unit": "ng per millilitre"}, {"measurement": "Trough plasma Imatinib concentration, Q 75 (third quartile)", "setting": "[4]; [8]", "value": 1629, "unit": "ng per millilitre"}, {"measurement": "Trough plasma Imatinib concentration, maximum", "setting": "[4]; [8]", "value": 2922, "unit": "ng per millilitre"}, {"measurement": "Trough plasma Imatinib concentration, median", "setting": "[4]; [8]", "value": 1315, "unit": "ng per millilitre"}, {"measurement": "Trough plasma Imatinib concentration, minimum", "setting": "[4]; [8]", "value": 603, "unit": "ng per millilitre"}, {"measurement": "Mean (±SD) trough plasma Imatinib concentration", "setting": "[4]; patients with CCR (56 patients)", "value": "1123.3±616.6", "unit": "ng per millilitre"}, {"measurement": "Median trough plasma Imatinib concentration", "setting": "[4]; patients with MMR (34 patients)", "value": 1350.2, "unit": "ng per millilitre"}, {"measurement": "Mean (±SD) trough plasma Imatinib concentration", "setting": "[4]; patients without CCR (12 patients)", "value": "694.2±556.0", "unit": "ng per millilitre"}, {"measurement": "Mean (±SD) trough plasma Imatinib concentration", "setting": "[4]; [9]", "value": "869.3±427.5", "unit": "ng per millilitre"}, {"measurement": "Median trough plasma Imatinib concentration", "setting": "[4]; [9]", "value": 885.5, "unit": "ng per millilitre"}, {"measurement": "Steady-state trough level, mean (±SD)", "setting": "[2]; Day 29, Quartile 1, N = 87", "value": "490 (±119.7) ng/mL"}, {"measurement": "Steady-state trough level, mean (±SD)", "setting": "[2]; Day 29, Quartile 4, N = 86", "value": "1661 (±602.0) ng/mL"}, {"measurement": "Steady-state trough level, mean (±SD)", "setting": "[2]; [5]", "value": "889 (±148.2) ng/mL"}, {"measurement": "Imatinib trough exposure (Cmin), mean", "setting": "[2]; Day 29, patients who achieved CCR", "value": "1009 ± 544 ng/mL and 1009 ng/mL"}, {"measurement": "Imatinib trough exposure (Cmin), mean", "setting": "[2]; Day 29, patients who did not achieve CCR", "value": "812 ± 409 ng/mL and 812 ng/mL"}, {"measurement": "Increase in trough level", "setting": "[2]; age from 20 years to 70 years, linear relationship assumed", "value": 295, "unit": "ng/mL"}, {"measurement": "Plasma trough level", "setting": "[2]; females, steady state", "value": "1078 ± 514.5", "unit": "ng/mL"}, {"measurement": "concentration at 24 h", "setting": "[2]; human, plasma, first 400 mg dose, Day 2, mean±SD, read-out: 24-hour trough concentration after the first dose", "value": "518 ± 370", "unit": "ng/mL"}, {"measurement": "Plasma trough level", "setting": "[2]; males, steady state", "value": "921 ± 530.8", "unit": "ng/mL"}, {"measurement": "Difference in plasma trough level, females vs males", "setting": "[2]; steady state", "value": 17.2, "unit": "%"}, {"measurement": "Estimated decrease in trough level", "setting": "[2]; weight increase from 40 kg to 120 kg, linear relationship assumed", "value": "approximately 280 ng/ml"}]}]}
